The values that follow are results of earlier work, collected in patent publication US20150119272A1, “DOSE-RESPONSE MEDICAL OUTCOME MODEL PREDICTOR SYSTEM AND METHOD” (ROYAL COLLEGE OF SURGEONS IN IRELAND, priority 2012, published 2015).

One series addresses Mcl-1 (Homo sapiens, UniProt Q07820). The settings on record: binding to Mcl-1; taken from literature (Lessene et al. 2008).
The next series has as its target Bcl-(X)L (Homo sapiens, UniProt Q07817). To be noted: binding to Bcl-(X)L; taken from literature (Lessene et al. 2008).

Structures are written as SMILES.

Sequence of Mcl-1 (Q07820 whole entry, species assumed): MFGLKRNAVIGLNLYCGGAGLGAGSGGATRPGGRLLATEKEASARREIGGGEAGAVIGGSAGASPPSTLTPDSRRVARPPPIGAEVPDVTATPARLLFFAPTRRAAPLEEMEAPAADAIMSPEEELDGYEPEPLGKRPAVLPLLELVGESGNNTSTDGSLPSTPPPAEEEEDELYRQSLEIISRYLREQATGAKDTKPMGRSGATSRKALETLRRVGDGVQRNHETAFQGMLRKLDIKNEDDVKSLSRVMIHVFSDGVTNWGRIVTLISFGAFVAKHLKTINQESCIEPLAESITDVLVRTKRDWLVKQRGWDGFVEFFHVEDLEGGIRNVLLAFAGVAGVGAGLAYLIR
Sequence of Bcl-(X)L (Q07817 whole entry, species assumed): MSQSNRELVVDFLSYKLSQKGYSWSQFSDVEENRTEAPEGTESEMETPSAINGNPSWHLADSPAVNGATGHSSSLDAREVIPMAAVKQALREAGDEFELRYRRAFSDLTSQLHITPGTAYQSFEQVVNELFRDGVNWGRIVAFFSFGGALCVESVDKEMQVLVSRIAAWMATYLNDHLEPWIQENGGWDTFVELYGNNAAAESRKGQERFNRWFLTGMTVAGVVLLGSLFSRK

As for `Cc1cc2c(C(C)C)c(O)c(O)c(C=O)c2c(O)c1-c1c(C)cc2c(C(C)C)c(O)c(O)c(C=O)c2c1O` [Gossypol], the Kd on Mcl-1 is 25 nM; at Bcl-(X)L it was 660 nM.
